2 molecules from ChEMBL document CHEMBL1126597, “Irreversible inactivation of macrophage and brain nitric oxide synthase by L-NG-methylarginine requires NADPH-dependent hydroxylation” (J Med Chem, 1993) can be followed below.

This assay addresses T1, Nitric oxide synthase, inducible (Mus musculus) (UniProt P29477).
T1 sequence (whole entry): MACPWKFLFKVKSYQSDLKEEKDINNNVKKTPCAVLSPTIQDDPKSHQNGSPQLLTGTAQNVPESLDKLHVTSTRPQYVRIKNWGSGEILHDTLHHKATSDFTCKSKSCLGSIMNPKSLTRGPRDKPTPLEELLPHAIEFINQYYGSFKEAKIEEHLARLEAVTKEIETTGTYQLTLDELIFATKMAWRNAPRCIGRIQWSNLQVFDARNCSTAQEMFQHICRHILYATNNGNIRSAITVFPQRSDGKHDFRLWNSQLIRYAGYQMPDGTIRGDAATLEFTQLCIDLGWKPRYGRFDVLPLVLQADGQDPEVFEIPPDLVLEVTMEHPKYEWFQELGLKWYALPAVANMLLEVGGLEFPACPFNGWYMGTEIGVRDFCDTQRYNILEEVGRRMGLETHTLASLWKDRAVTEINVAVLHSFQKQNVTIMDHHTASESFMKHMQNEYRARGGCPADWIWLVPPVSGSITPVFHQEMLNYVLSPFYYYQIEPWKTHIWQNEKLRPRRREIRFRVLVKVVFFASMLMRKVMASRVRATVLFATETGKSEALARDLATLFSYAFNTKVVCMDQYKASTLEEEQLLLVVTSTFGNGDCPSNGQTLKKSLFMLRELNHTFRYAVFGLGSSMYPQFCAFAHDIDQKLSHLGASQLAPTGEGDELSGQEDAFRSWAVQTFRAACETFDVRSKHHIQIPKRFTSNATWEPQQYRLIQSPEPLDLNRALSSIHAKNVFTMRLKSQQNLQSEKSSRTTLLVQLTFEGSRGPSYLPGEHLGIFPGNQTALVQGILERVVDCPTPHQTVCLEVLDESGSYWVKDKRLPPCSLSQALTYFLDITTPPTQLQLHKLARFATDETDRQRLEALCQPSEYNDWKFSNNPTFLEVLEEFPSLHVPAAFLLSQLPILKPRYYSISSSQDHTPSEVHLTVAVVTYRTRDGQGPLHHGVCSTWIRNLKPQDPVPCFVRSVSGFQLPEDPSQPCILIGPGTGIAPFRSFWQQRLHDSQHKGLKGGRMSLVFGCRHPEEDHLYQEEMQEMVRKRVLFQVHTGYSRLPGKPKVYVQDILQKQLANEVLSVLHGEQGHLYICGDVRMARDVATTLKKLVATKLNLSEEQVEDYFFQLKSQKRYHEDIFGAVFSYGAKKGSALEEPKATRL
Kind of assay: Inhibitory against murine macrophage nitric oxide synthase (mNOS) at 10 uM.

With `CN(O)C(=N)NCCCC(N)C(=O)O` (configuration not stated), the kinact is 0.1 min⁻¹.
Next, `CNC(=N)NCCC[C@H](N)C(=O)O`: 0.08 min⁻¹.
